Publication PMC4982760, “Small-molecule inhibitors identify the RAD52-ssDNA interaction as critical for recovery from replication stress and for survival of BRCA2 deficient cells” (eLife, 2016)

Tests used:
[1] = system: GM01604 cells (hTERT-immortalized wild-type human fibroblasts); test: Neutral comet assay, MUS81/EME1/RAD52-dependent DSB formation; assay type: cell-based; settings: GM01604, HU + UCN01
From the text: In human cells, RAD52 may perform both limited recombination-mediator function in the RAD51-dependent pathway ([Lok and Powell, 2012]; [Benson et al., 1998]; [Feng et al., 2011]) as well as additional RAD51-independent roles ([Lok and Powell, 2012]; [Murfuni et al., 2013]; [McIlwraith and West, 2008]). One of these HR independent roles of RAD52 involves stimulation of MUS81/EME1-dependent DSB formation at replication forks stalled by hydroxyurea (HU) treatment in the absence of cellular checkpoints ([Murfuni et al., 2013]). Since the most likely targets of these MUS81/EME1/RAD52-dependent DSBs are the DNA structures produced by RAD52 ([Murfuni et al., 2013]), we expected this activity to depend on the RAD52-ssDNA interaction (Figure 5a). To confirm this, we assessed DSB formation in checkpoint deficient cells using the neutral comet assay. These assays monitor MUS81/EME1/RAD52-dependent DSB formation upon induction of replication stress by HU treatment in primary fibroblasts immortalized by hTERT expression and treated with UNC01 to inhibit CHK1 kinase (Figure 5b). […] Importantly, these inhibitors recapitulate RAD52 depletion by inhibiting RAD52-MUS81-dependent DSBs at stalled replication forks (Figure 5a–b). […] It also confirms our previous supposition that the target of MUS81/EME1-mediated cleavage under these conditions are indeed the structures annealed by RAD52. […]
To induce RAD52-MUS81-dependent cleavage at arrested replication forks ([Murfuni et al., 2013]), hTERT-immortalized wild-type human fibroblasts (GM01604) were treated with 2 mM HU and 300 nM UCN01 for 6h, in the presence and absence of varying concentrations of ‘1’ or ‘6’. […] Slides were analyzed by a computerized image analysis system (Comet IV, Perceptive UK). To assess the quantity of DNA damage, computer-generated tail moment values (tail length x fraction of total DNA in the tail) were used. […] A minimum of 100 cells were analyzed for each compound concentration point.

GM01604 cells = test: LIVE/DEAD cell viability assay; assay type: cell-based, human; settings: 1 µM compound
Experimental: GM01604 cells were transfected with siRNAs directed against GFP (Ctrl), or against MUS81 (Qiagen), BRCA2 (Sigma-Aldrich), and RAD52 (Qiagen) 48 hr prior to addition of 1 µM ‘1’. Where indicated, the conditions of pathological replication were induced by treating cells with 2 mM HU and 300 nM UCN01 for 6 hr or by 18 hr treatment with 2 mM HU, in the presence or absence of ‘1’. Viability was evaluated by the LIVE/DEAD assay (Sigma-Aldrich) according to the manufacturer’s instructions. Cell number was counted in randomly chosen fields and expressed as percent of dead cells (number of red nuclear stained cells divided by the total cell number) corrected for the cell loss observed in the population. For each time point, at least 200 cells were counted.

RPA-ssDNA interaction = target: T1, RPA-ssDNA interaction (Homo sapiens, UniProt P15927+P27694+P35244); test: FRET titration of the RPA-Cy3-dT30-Cy5 complex; assay type: binding; settings: range of tested concentrations
T1 construct: made in house
T1 sequence (P27694 whole entry): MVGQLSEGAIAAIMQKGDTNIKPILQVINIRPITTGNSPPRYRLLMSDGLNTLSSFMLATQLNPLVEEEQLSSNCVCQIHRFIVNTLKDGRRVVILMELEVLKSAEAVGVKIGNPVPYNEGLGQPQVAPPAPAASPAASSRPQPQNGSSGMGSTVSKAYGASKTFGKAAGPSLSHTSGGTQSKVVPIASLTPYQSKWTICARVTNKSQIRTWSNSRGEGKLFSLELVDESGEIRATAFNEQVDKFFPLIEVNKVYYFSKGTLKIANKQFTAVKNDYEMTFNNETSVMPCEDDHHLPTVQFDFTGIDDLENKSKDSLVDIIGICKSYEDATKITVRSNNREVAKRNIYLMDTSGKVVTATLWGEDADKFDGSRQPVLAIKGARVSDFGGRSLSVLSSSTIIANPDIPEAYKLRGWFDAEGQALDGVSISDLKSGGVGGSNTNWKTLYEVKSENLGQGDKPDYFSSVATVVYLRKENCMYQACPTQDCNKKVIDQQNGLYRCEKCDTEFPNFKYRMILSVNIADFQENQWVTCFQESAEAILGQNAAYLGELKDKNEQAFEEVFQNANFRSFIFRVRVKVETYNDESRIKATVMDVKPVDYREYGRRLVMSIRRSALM
T1 sequence (P15927 whole entry): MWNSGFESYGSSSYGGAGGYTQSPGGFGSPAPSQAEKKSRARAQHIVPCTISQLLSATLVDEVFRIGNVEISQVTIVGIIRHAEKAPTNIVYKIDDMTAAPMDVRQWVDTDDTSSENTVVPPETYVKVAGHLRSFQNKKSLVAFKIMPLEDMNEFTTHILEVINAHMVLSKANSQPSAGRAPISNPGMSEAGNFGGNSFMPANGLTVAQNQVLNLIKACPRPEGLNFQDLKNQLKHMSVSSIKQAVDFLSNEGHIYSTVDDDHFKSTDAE
T1 sequence (P35244 whole entry): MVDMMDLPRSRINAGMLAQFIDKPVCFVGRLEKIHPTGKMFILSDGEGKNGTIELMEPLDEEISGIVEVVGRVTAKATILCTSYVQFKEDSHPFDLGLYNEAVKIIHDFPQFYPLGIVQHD
From the text: In the cell, ssDNA is typically found in complex with Replication protein A (RPA), the major eukaryotic ssDNA-binding protein essential for DNA replication, repair and recombination ([Wold, 1997]; [Oakley and Patrick, 2010]; [Chen and Wold, 2014]). The RPA-ssDNA complex is a physiologically relevant substrate for the RAD52-mediated strand annealing. […] RPA binds ssDNA with high affinity and extends the ssDNA to its contour length. In our assays such an extension manifests as a distinct FRET state of ~0.3, which is readily distinguished from a FRET state of ~0.48 of free Cy3-dT30-Cy5 ssDNA, as well as ~0.63 FRET of the stoichiometric ssDNA-RPA-RAD52 complex (see Figure 2—figure supplement 1 and ([Grimme and Spies, 2011]) for details). […] Both, however, inhibited the RAD52 binding to and wrapping of RPA-coated ssDNA with IC50 values identical to those determined without RPA (Figure 2e and Figure 3e).
In all experiments, the FRET values for each data point were corrected for the effects of the compounds on the respective substrate in the absence of RAD52.

Oc1cc(O)c2c(c1)O[C@H](c1cc(O)c(O)c(O)c1)[C@H](O)C2 [Compound 1, (−)−Epigallocatechin]
concentration sufficient for same level of DSB reduction as siRNA treatment [1]: 1 µM | concentration with same reduction in DSBs as siRNA depletion of RAD52 [1]: 500 nM | cell death (GM01604 cells; BRCA2-depleted GM01604, after replication stress (HU + UCN01)): ~ 80% | dead cells (GM01604 cells; MUS81-depleted GM01604, checkpoint-deficient, HU treated): ~60% | dead cells (GM01604 cells; MUS81-depleted GM01604, untreated): approximately 40% | effect on the RPA-ssDNA interaction (RPA-ssDNA interaction): neither ‘1’ nor ‘6’ affected the RPA-ssDNA interaction
